From US7592478B2, “Ligand antagonists of RAR receptors and pharmaceutical/cosmetic applications thereof” (Galderma Research & Development, priority 2002, dated 2009) come the findings set out here.

What all share (type): cell-based
The target in one assay is T1, RAR alpha (Homo sapiens, UniProt P10276).
T1 sequence (P10276 183-417 limits assumed): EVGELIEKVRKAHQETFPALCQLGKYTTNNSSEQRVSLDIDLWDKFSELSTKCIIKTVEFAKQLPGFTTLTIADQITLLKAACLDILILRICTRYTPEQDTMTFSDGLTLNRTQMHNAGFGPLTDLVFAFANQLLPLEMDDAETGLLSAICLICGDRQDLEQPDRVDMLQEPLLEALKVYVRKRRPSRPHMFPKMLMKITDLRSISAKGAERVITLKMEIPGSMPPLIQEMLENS
In words: Transactivation test (luciferase reporter, stably transfected HeLa cells), RAR alpha. Particulars: for Kd: Schild regression vs reference agonist 4-[2-(5,5,8,8-tetramethyl-5,6,7,8-tetrahydro-2-naphthyl)propenyl]benzoic acid, read-out: RAR alpha Kdapp; for IC50: at the reference agonist concentration that gives 80% activation. The method, then: (§1) The activation of receptors with an agonist (activator) in HeLa cells leads to the expression of a reporter gene, luciferase, which, in the presence of a substrate, generates light. The activation of the receptors may thus be measured by quantifying the luminescence produced after incubating the cells in the presence of a reference agonist. The inhibitory products displace the agonist from its site, thus preventing activation of the receptor. The activity is measured by quantifying the reduction in light produced. This measurement makes it possible to determine the inhibitory activity of the compounds according to the invention.
(§2) In this study, a constant is determined which represents the affinity of the molecule for the receptor. Since this value can fluctuate depending on the basal activity and the expression of the receptor, it is referred to as the Kd apparent (KdApp).
(§3) To determine this constant, “crossed curves” of the test product against a reference agonist, 4-[2-(5,5,8,8-tetramethyl-5,6,7,8-tetrahydro-2-naphthyl)propenyl]benzoic acid, are performed in 96-well plates. The test product is used at 10 concentrations and the reference agonist at 7 concentrations. In each well, the cells are in contact with a concentration of the test product and a concentration of the reference agonist, 4-[2-(5,5,8,8-tetramethyl-5,6,7,8-tetrahydro-2-naphthyl)propenyl]benzoic acid. Measurements are also taken for the total agonist (4-[2-(5,5,8,8-tetramethyl-5,6,7,8-tetrahydro-2-naphthyl)propenyl]benzoic acid) and inverse agonist, 4-{(E)-3-[4-(4-tert-butylphenyl)-5,5,8,8-tetramethyl-5,6,7,8-tetrahydro-2-naphthyl]-3-oxopropenyl}benzoic acid, controls.
(§4) These crossed curves make it possible to determine the AC50 values (concentration at which 50% activation is observed) for the reference ligand at various concentrations of test product. These AC50 values are used to calculate the Schild regression by plotting a straight line corresponding to the Schild equation (“quantitation in receptor pharmacology” Terry P. Kenakin, Receptors and Channels, 2001, 7, 371-385).
(§5) In the case of an antagonist, an IC50 value (concentration that inhibits 50% of the activity) is calculated by plotting the curve of the product at the concentration of the reference ligand that gives 80% activation.
(§6) The HeLa cell lines used are stable transfectants containing the plasmids ERE-βGlob-Luc-SV-Neo (reporter gene) and RAR (α, β, γ) ER-DBD-puro. These cells are inoculated into 96-well plates at a rate of 10000 cells per well in 100 μl of DMEM medium without phenol red, and supplemented with 10% defatted calf serum. The plates are then incubated at 37° C. and 7% CO2 for 4 hours.
(§7) The various dilutions of the test products, of the reference ligand (4-[2-(5,5,8,8-tetramethyl-5,6,7,8-tetrahydro-2-naphthyl)propenyl]benzoic acid), of the 100% control (100 nM 4-[2-(5,5,8,8-tetramethyl-5,6,7,8-tetrahydro-2-naphthyl)propenyl]benzoic acid) and of the 0% control (500 nM 4-{(E)-3-[4-(4-tert-butylphenyl)-5,5,8,8-tetramethyl-5,6,7,8-tetrahydro-2-naphthyl]-3-oxopropenyl}benzoic acid) are added at a rate of 5 μl per well. The plates are then incubated for 18 hours at 37° C. and 7% CO2.
(§8) The culture medium is removed by turning over and 100 μl of a 1:1 PBS/luciferine mixture is added to each well. After 5 minutes, the plates are read using the luminescence reader.

A further assay addresses T2, RAR beta (Homo sapiens, UniProt P10826).
T2 sequence (P10826 183-417 limits assumed): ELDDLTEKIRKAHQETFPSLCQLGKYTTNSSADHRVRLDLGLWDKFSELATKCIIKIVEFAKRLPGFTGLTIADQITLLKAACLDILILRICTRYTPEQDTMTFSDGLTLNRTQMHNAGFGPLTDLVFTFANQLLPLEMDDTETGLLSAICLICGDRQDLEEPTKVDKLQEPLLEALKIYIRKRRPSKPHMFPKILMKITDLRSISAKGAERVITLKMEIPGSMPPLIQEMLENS
The assay is described as follows: Transactivation test (luciferase reporter, stably transfected HeLa cells), RAR beta. Particulars: for Kd: Schild regression vs reference agonist 4-[2-(5,5,8,8-tetramethyl-5,6,7,8-tetrahydro-2-naphthyl)propenyl]benzoic acid, read-out: RAR beta Kdapp; for IC50: at the reference agonist concentration that gives 80% activation. The protocol: as §1, §2, §3, §4, §5, §6, §7, §8
(In a reporter assay the amount or activity of a reporter protein is the signal.)

The target of a further assay is T3, RAR gamma (Homo sapiens, UniProt P13631).
T3 sequence (P13631 185-419 limits assumed): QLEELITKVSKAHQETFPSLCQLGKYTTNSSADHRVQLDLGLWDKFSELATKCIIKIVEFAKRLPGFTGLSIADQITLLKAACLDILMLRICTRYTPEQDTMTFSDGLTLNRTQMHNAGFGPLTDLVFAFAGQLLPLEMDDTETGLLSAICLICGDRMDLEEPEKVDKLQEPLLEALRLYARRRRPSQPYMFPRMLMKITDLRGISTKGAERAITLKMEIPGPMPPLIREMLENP
The assay is described as follows: Transactivation test (luciferase reporter, stably transfected HeLa cells), RAR gamma. The following applies: for Kd: Schild regression vs reference agonist 4-[2-(5,5,8,8-tetramethyl-5,6,7,8-tetrahydro-2-naphthyl)propenyl]benzoic acid, read-out: RAR gamma Kdapp; for IC50: at the reference agonist concentration that gives 80% activation. The protocol:
as §1, §2, §3, §4, §5, §6, §7, §8

One may read the IC50 as the concentration that inhibits the measured activity by half. Low values mean higher potency, high ones lower potency.

Take `Cc1ccc(C2=CCC(C)(C)c3cc([Se]C#Cc4ccc(C(=O)O)cc4)ccc32)cc1` [Example 1, 4-(8,8-Dimethyl-5-p-tolyl-7,8-dihydro-2-naphthylselanylethynyl)benzoic acid]: the results for the Kd on RAR alpha, at RAR beta and on RAR gamma were 30 nM, 8 nM and 2 nM, respectively. The IC50 amounted to 52.5 nM on RAR alpha, 12.8 nM at RAR beta and 5 nM at RAR gamma.
In the case of `Cc1ccc(C2=CCC(C)(C)c3cc([Se]C#Cc4ccc(C(=O)O)c(F)c4)ccc32)cc1` [Example 9, 4-(8,8-Dimethyl-5-p-tolyl-7,8-dihydro-2-naphthylselanylethynyl)-2-fluorobenzoic acid], the Kd was determined as 120 nM on RAR alpha, 8 nM on RAR beta and 2 nM at RAR gamma. Besides, the results for the half-inhibitory concentration (IC50) at RAR alpha, at RAR beta and on RAR gamma were 210 nM, 12.8 nM and 5 nM, respectively.
As for `CN(C)c1ccc(C2=CCC(C)(C)c3cc(C(O)C#Cc4ccc(C(=O)O)cc4)ccc32)cc1` (stereo not drawn) [Example 19, 4-{3-[5-(4-Dimethylaminophenyl)-8,8-dimethyl-7,8-dihydro-2-naphthyl]-3-hydroxyprop-1-ynyl}benzoic acid], the Kd stood at 500 nM on RAR alpha, 120 nM on RAR beta and 60 nM on RAR gamma. Moreover, the IC50 on RAR alpha worked out at 875 nM; on RAR beta it was 192 nM; on RAR gamma it was 150 nM.
